Measured values as given in patent US20150159131A1, “METHODS AND COMPOSITIONS FOR REGULATING MUSASHI FUNCTION” (Board of Trustees of the University of Arkansas, priority 2011, published 2015).

Tests used:
Assay type in all cases: cell-based, Xenopus
Mos mRNA = assay: Polyadenylation assay of endogenous Mos mRNA (RNA ligation-coupled PCR)
Description: The increase in PCR product length is specifically due to extension of the poly[A] tail. The primer used to analyze endogenous Xenopus Musashi1 mRNA polyadenylation was [NT] ID NO:24).

[1] = test system: Musashi1 S322 phosphorylation; assay: Western blot for S322-phosphorylated Musashi1 in oocyte lysates
Method: Xenopus oocytes were isolated and cultured. Oocytes were induced to mature with 2 μg/ml progesterone. The rate of germinal vesicle breakdown (GVBD) was scored morphologically by observing the appearance of a white spot on the animal pole. Because oocytes from different frogs mature at different rates in response to progesterone, the culture times were standardized between experiments to the time taken for 50% of oocytes to undergo GVBD. Where indicated, oocytes were pre-treated with 50 μM MEK inhibitor, UO126 or DMSO vehicle for 30 minutes.
Antisera for phosphorylation specific Musashi1 S322 were generated by immunizing rabbits with the peptide VSSYISAAS(phospho)PAPSTGF (SEQ ID NO:26). The antibodies were affinity purified through a peptide-affinity column and used at 1:1000. Abcam antibodies to Musashi1 were used at 1:1000. Sigma Tubulin antibodies were used at 1:20,000. The phospho-specific Cdc2 antibody was used at 1:1000 and detects the inhibitory Tyr15 phosphorylation. The phospho-specific MAP kinase antibody (Cell Signaling) was used at 1:1000 and detects the activating phosphorylations at Thr202/Tyr204. The GST antibody (Santa Cruz) was used at 1:1000. The Xenopus Ringo antibody was used at 1:1000.
Oocytes were lysed in NP40 lysis buffer containing sodium vanadate and a protease inhibitor cocktail. Where indicated, a portion of the lysate was transferred to STAT-60 for RNA extraction. […]

Musashi1 protein = assay: Western blot for endogenous Musashi1 protein accumulation at GVBD50; settings: at GVBD50, normalized to tubulin, 3 experiments, p<0.01
Method: Oocytes were lysed in NP40 lysis buffer containing sodium vanadate and a protease inhibitor cocktail. Where indicated, a portion of the lysate was transferred to STAT-60 for RNA extraction. Protein lysates were then spun, clarified and transferred immediately to 1× sample buffer. The lysates were run on a 10% Nupage gel and transferred to a 0.2 μm-pore-size nitrocellulose filter. The membrane was blocked with 1% bovine serum albumin in TBST for 60 min at room temperature. Following incubation with primary antibody, filters were incubated with horseradish peroxidase conjugated secondary antibody using enhanced chemiluminescence in a Fluorchem 8000 Advanced Imager. To determine if Musashi is regulated by progesterone, Musashi levels were detected in progesterone stimulated oocytes using methods described in Example 1. […] Lysates from oocytes treated with or without progesterone were analyzed by western blot for endogenous Musashi1 protein accumulation at GVBD50. Quantifications of fold changes in Musashi1 levels (as indicated below western) were normalized to tubulin from the same sample, and levels in immature oocytes (Imm) arbitrarily set to 1.0. The bar graph of FIG. 1B represents data from 3 independent experiments with S.E.M. (Student's t-test; p<0.01).

Compound | effect on initial polyadenylation or translation of the Mos mRNA (Mos mRNA; oocytes treated with MAP kinase signaling inhibitor) | effect on progesterone-stimulated Musashi S322 phosphorylation ([1]; oocytes expressing GST-Musashi1, progesterone stimulated) | time at which Mos mRNA polyadenylation initiates after progesterone stimulation (Mos mRNA; oocytes expressing GST-Musashi) | maximum progesterone-induced change in phospho-Musashi1 levels normalized to tubulin, relative to immature oocytes ([1]; uninjected oocytes, endogenous Musashi1, n=4, p<0.05) | Musashi protein levels in response to progesterone stimulation (Musashi1 protein)
N#CC(=C(/N)Sc1ccccc1N)/C(C#N)=C(/N)Sc1ccccc1N [UO126] | does not prevent | significant attenuation |  |  | 
CC(=O)[C@H]1CC[C@H]2[C@@H]3CCC4=CC(=O)CC[C@]4(C)[C@H]3CC[C@]12C [progesterone] |  |  | approximately 3 hours | 1.25+/−0.11 fold | increase
